Key:
Assay in all cases: Kinome-wide profiling
Type in all cases: biochemical
Conditions in all cases: read-out: % Residual Activity (mean)
[1] = target: CDK9/cyclin T1 (Homo sapiens (Human), UniProt P50750)
[2] = target: CDK3/cyclin E (Homo sapiens (Human), UniProt Q00526)
[3] = target: CDK1/cyclin A (Homo sapiens (Human), UniProt P06493)
[4] = target: MUSK (Homo sapiens (Human), UniProt O15146)
[5] = target: c-Kit (Homo sapiens (Human), UniProt P10721)
[6] = target: TRKB (Homo sapiens (Human), UniProt Q16620)
[7] = target: CDK16/cyclin Y (PCTAIRE) (Homo sapiens (Human), UniProt Q00536)
[8] = target: CAMKK1 (Homo sapiens (Human), UniProt Q8N5S9)
CAMKK1, sequence (Q8N5S9 whole entry): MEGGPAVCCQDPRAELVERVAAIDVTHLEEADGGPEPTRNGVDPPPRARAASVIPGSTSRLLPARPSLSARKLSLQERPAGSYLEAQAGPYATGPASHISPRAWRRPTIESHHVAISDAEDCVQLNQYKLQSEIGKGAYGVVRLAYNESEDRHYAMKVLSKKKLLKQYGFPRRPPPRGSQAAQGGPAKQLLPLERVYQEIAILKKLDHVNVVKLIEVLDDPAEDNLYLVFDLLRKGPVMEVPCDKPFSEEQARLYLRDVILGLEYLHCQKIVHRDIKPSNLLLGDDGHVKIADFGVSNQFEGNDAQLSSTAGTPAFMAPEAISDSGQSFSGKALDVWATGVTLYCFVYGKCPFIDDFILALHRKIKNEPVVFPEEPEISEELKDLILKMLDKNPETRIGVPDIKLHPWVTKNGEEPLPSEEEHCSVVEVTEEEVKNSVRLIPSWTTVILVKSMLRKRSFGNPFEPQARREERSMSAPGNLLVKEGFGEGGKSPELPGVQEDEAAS

[9] = target: CK1a1 (Homo sapiens (Human), UniProt P48729)
CK1a1, sequence (P48729 whole entry): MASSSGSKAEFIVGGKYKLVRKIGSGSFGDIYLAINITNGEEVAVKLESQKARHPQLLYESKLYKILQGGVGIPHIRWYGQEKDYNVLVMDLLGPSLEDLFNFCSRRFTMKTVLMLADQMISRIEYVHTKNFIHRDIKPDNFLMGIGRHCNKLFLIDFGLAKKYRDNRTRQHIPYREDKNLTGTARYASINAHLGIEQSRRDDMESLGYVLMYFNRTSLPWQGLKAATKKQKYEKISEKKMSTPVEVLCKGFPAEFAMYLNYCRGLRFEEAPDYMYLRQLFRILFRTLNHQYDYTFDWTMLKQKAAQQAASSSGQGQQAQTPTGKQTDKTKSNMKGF

[10] = target: CK1g2 (Homo sapiens (Human), UniProt P78368)
[11] = target: ROS/ROS1 (Homo sapiens (Human), UniProt P08922)
[12] = target: CDK4/cyclin D1 (Homo sapiens (Human), UniProt P11802)
CDK4/cyclin D1, sequence (P11802 whole entry): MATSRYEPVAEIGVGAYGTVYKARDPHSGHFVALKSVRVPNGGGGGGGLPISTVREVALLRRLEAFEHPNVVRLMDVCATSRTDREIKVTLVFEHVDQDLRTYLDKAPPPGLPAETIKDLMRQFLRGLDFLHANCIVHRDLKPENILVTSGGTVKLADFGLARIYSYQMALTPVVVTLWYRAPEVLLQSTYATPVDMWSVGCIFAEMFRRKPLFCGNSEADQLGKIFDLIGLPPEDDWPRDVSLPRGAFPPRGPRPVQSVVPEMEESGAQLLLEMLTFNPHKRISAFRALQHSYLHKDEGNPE
CDK4/cyclin D1, sequence (P24385 whole entry partner): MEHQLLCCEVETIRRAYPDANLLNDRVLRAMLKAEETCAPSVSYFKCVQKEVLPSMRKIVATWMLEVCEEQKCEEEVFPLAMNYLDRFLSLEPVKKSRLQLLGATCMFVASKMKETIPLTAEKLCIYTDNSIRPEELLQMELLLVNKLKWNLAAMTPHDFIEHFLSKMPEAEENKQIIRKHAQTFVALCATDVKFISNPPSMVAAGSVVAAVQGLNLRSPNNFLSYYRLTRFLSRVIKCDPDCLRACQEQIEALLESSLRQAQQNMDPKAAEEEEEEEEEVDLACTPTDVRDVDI

[13] = target: CAMK1a (Homo sapiens (Human), UniProt Q14012)
[14] = target: SIK2 (Homo sapiens (Human), UniProt Q9H0K1)
[15] = target: AXL (Homo sapiens (Human), UniProt P30530)
[16] = target: PKCg (Homo sapiens (Human), UniProt P05129)
[17] = target: FER (Homo sapiens (Human), UniProt P16591)
[18] = target: SRPK1 (Homo sapiens (Human), UniProt Q96SB4)
[19] = target: SIK1 (Homo sapiens (Human), UniProt P57059)
[20] = target: RSK3 (Homo sapiens (Human), UniProt Q15349)
[21] = target: CAMK2d (Homo sapiens (Human), UniProt Q13557)
[22] = target: SLK/STK2 (Homo sapiens (Human), UniProt Q9H2G2)
SLK/STK2, sequence (Q9H2G2 whole entry): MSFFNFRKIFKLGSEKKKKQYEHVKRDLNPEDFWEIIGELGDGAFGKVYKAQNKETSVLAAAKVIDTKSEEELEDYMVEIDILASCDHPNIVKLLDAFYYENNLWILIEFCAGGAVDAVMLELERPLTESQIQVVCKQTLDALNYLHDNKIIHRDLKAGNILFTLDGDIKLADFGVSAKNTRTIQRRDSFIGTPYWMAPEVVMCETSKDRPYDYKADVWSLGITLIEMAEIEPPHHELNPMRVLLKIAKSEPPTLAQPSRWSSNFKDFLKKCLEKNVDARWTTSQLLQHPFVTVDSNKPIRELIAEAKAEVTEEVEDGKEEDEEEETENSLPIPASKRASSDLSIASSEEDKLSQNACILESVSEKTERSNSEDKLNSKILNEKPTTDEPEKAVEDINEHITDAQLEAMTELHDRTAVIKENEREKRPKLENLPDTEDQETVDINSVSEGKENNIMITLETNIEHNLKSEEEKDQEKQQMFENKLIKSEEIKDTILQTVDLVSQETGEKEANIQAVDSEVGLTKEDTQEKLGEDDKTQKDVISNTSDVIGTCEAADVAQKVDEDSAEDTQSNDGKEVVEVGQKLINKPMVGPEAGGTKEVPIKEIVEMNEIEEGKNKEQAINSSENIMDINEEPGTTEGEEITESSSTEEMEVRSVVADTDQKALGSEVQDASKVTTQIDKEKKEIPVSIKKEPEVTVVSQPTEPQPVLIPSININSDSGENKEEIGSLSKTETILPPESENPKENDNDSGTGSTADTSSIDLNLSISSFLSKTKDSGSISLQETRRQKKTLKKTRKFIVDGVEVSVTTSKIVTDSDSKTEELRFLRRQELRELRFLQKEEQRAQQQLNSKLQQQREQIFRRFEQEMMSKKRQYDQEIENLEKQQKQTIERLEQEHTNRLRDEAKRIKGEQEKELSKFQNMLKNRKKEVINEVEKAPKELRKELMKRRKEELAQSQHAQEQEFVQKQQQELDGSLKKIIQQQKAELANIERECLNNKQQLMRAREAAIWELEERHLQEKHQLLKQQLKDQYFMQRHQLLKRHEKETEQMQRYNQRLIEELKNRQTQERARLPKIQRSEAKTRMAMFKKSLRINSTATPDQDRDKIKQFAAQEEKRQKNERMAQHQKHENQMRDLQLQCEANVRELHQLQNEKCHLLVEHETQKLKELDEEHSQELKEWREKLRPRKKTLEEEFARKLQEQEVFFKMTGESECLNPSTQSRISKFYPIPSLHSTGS

[23] = target: IKKa/CHUK (Homo sapiens (Human), UniProt O15111)
[24] = target: CK2a (Homo sapiens (Human), UniProt P68400)
[25] = target: PKCb1 (Homo sapiens (Human), UniProt P05771)
[26] = target: WEE1 (Homo sapiens (Human), UniProt P30291)
WEE1, sequence (P30291 whole entry): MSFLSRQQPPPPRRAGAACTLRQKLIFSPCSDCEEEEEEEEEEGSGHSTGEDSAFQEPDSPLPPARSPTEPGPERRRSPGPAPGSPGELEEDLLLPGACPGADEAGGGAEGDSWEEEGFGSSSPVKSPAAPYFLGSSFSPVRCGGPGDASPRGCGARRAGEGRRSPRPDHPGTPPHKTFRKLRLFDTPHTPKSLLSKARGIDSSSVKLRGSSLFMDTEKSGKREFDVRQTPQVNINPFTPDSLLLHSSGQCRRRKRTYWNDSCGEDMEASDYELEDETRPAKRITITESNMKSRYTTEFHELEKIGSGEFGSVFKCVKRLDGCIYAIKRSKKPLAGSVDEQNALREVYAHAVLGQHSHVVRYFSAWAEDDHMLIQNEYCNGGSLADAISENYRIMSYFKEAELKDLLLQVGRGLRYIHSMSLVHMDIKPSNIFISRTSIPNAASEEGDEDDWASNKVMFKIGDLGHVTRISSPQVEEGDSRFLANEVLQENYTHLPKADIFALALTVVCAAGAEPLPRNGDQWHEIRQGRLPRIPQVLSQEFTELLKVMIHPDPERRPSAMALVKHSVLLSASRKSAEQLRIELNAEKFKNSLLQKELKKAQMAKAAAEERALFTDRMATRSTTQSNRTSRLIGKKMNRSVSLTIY

[27] = target: TSSK3/STK22C (Homo sapiens (Human), UniProt Q96PN8)
[28] = target: SGK3/SGKL (Homo sapiens (Human), UniProt Q96BR1)
[29] = target: PBK/TOPK (Homo sapiens (Human), UniProt Q96KB5)
[30] = target: PKCepsilon (Homo sapiens (Human), UniProt Q02156)
[31] = target: HIPK3 (Homo sapiens (Human), UniProt Q9H422)
[32] = target: IRAK4 (Homo sapiens (Human), UniProt Q9NWZ3)
[33] = target: AKT1 (Homo sapiens (Human), UniProt P31749)
[34] = target: CAMK4 (Homo sapiens (Human), UniProt Q16566)
[35] = target: NEK4 (Homo sapiens (Human), UniProt P51957)
[36] = target: MRCKa/CDC42BPA (Homo sapiens (Human), UniProt Q5VT25)
[37] = target: PIM1 (Homo sapiens (Human), UniProt P11309)
[38] = target: MRCKb/CDC42BPB (Homo sapiens (Human), UniProt Q9Y5S2)
[39] = target: MAPKAPK5/PRAK (Homo sapiens (Human), UniProt Q8IW41)

c-Kit, sequence (P10721 26-976): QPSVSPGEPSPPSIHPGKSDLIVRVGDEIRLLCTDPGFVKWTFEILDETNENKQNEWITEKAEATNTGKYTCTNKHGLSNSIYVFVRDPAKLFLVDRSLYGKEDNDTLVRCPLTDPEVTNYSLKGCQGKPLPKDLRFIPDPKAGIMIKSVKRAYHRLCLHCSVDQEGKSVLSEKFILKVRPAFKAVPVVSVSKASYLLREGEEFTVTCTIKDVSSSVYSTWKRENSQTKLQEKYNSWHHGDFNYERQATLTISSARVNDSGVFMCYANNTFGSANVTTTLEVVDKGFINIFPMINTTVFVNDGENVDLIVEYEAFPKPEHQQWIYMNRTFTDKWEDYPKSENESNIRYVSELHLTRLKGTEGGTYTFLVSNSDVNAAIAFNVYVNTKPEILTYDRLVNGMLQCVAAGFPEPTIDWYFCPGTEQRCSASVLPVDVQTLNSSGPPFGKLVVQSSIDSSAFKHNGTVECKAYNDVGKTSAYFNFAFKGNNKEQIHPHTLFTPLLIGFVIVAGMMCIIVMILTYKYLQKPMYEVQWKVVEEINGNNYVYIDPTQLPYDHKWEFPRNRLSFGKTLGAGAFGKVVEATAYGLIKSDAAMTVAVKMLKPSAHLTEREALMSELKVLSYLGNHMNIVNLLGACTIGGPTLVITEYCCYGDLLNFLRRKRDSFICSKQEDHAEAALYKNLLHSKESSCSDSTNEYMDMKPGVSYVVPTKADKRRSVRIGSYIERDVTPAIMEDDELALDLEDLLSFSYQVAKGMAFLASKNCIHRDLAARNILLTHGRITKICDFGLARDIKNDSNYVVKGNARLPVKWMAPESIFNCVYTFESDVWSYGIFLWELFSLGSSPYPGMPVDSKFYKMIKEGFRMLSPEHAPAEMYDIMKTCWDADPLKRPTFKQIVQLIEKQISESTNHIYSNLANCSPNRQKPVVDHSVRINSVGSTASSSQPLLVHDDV
CDK3/cyclin E, sequence (Q00526 whole entry): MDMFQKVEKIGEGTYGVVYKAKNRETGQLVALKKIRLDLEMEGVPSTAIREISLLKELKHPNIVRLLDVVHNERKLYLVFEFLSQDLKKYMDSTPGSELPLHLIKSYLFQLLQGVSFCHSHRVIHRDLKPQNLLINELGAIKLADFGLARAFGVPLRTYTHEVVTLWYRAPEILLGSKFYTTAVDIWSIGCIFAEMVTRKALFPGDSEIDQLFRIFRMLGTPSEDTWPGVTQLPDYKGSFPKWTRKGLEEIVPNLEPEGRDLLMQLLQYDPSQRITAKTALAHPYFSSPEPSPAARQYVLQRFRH
CDK3/cyclin E, sequence (P24864 whole entry partner): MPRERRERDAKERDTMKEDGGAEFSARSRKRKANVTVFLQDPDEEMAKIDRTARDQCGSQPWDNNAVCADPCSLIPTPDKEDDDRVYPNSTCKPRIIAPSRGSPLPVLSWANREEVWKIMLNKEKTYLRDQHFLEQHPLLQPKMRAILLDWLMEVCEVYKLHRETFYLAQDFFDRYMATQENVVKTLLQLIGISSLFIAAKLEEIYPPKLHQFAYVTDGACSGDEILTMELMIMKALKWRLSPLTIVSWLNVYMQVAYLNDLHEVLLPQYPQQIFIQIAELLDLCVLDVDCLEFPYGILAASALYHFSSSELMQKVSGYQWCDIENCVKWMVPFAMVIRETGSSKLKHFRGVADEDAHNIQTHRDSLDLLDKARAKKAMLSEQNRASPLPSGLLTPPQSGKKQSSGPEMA

CCn1cnc2c(NCc3ccc(-c4ccccn4)nc3)nc(-c3ccc(N)nc3)nc21 [Example 53, N-([2,2′-bipyridin]-5-ylmethyl)-2-(6-aminopyridin-3-yl)-9-ethyl-9H-purin-6-amine]
remaining activity at 10 µM [1]: 0.78%
remaining activity at 10 µM [2]: 0.99%
remaining activity at 10 µM [3]: 4.65%
remaining activity at 10 µM [4]: 10.2%
remaining activity at 10 µM [5]: 14.2%
remaining activity at 10 µM [6]: 16.5%
remaining activity at 10 µM [7]: 17.5%
remaining activity at 10 µM [8]: 18.7%
remaining activity at 10 µM [9]: 26.5%
remaining activity at 10 µM [10]: 27%
remaining activity at 10 µM [11]: 27.8%
remaining activity at 10 µM [12]: 33.5%
remaining activity at 10 µM [13]: 34%
remaining activity at 10 µM [14]: 35.9%
remaining activity at 10 µM [15]: 44.2%
remaining activity at 10 µM [16]: 49.5%
remaining activity at 10 µM [17]: 52.3%
remaining activity at 10 µM [18]: 54.3%
remaining activity at 10 µM [19]: 56.3%
remaining activity at 10 µM [20]: 58%
remaining activity at 10 µM [21]: 61.7%
remaining activity at 10 µM [22]: 69.5%
remaining activity at 10 µM [23]: 71.5%
remaining activity at 10 µM [24]: 84.2%
remaining activity at 10 µM [25]: 89.9%
remaining activity at 10 µM [26]: 90.2%
remaining activity at 10 µM [27]: 91.5%
remaining activity at 10 µM [28]: 92.6%
remaining activity at 10 µM [29]: 93.5%
remaining activity at 10 µM [30]: 94.1%
remaining activity at 10 µM [31]: 94.1%
remaining activity at 10 µM [32]: 94.8%
remaining activity at 10 µM [33]: 94.9%
remaining activity at 10 µM [34]: 95.2%
remaining activity at 10 µM [35]: 95.8%
remaining activity at 10 µM [36]: 96.6%
remaining activity at 10 µM [37]: 97.8%
remaining activity at 10 µM [38]: 99.3%
remaining activity at 10 µM [39]: 103%

Source: patent US20250101023A1, “HETEROARYL DERIVATIVE AND USES THEREOF” (IUCF-HYU (INDUSTRY-UNIVERSITY COOPERATION FOUNDATION …, priority 2022, published 2025)
